Test results as given in patent US10640450B1, “Hydroxytyrosol dihydrocaffeate having antioxidant activity and a method for preparing the same” (SHAANXI UNIVERSITY OF SCIENCE AND TECHNOLOGY, priority 2019, dated 2020).

Test: DPPH radical scavenging activity assay
Type: biochemical
Conditions: for DPPH Clearance rate: 30 min dark, room temperature, 517 nm, n = 3
Source text: 2,2-Diphenyl-1-picryl hydrazyl (DPPH) is an organic compound composed of a stable organic radical. In the DPPH molecule, due to the presence of multiple electron-withdrawing —NO2 and large π bonds of the benzene ring, nitrogen free radical is stabilized. Its methanol solution is purple and has a maximum absorption peak at 517 nm. After the addition of an antioxidant, DPPH captures an electron to be paired with the free electron, and the purple fades and turns into a yellow substance. The absorption at 517 nm disappears, and the degree of fading is quantitatively related to the number of electrons it captures. Based on this principle, a spectrophotometer is used to detect the change of the absorbance of the DPPH radical and the sample solution, and the ability of the sample to provide hydrogen atoms and scavenge free radicals can be measured.
(a) Preparation of DPPH solution: measuring exact amount of 2,2-diphenyl-1-picryl hydrazyl (DPPH) and dissolving in toluene to prepare a 0.2 mmoL/L DPPH solution, stored at 0° C. in dark.
(b) Preparation of test solution: Vc (vitamin C, positive control), hydroxytyrosol dihydrocaffeate (sample), hydroxytyrosol (control) and dihydrocaffeic acid (control). The sample solution was subjected to gradient dilution with toluene, and three sets of controls were separately dissolved in a test tube with a certain amount of toluene to prepare the same concentration gradient as the sample.
Sample liquid absorbance measurement: Taking 2 mL of test solution (Table 1: Vc, A, B, C), adding 2 mL of DPPH solution with concentration of […], mixing and reacting in the dark at room temperature for 30 min, adjusting to zero with toluene, and measuring at 517 nm. The absorbance A, was simultaneously measured for the absorbance of 2 mL of toluene mixed with 2 mL of the solution and the absorbance A0 of 2 mL of DPPH solution mixed with 2 mL of toluene (The experimental results are shown in Table 2).
Clearance rate (%)=[1−(Ai−Aj)/A0]*100% Clearance calculation: […]

SMILES	antioxidant activity (in words)	DPPH Clearance rate (1.76 ppm in toluene)	DPPH Clearance rate (8.80 ppm in toluene)	DPPH Clearance rate (21.12 ppm in toluene)	DPPH Clearance rate (42.24 ppm in toluene)	DPPH Clearance rate (79.20 ppm in toluene)	DPPH Clearance rate (112.64 ppm in toluene)	DPPH Clearance rate (281.60 ppm in toluene)	DPPH Clearance rate (492.80 ppm in toluene)	DPPH Clearance rate (792.00 ppm in toluene)	DPPH Clearance rate (915.20 ppm in toluene)	scavenging ability to DPPH radical compared with controls (compared with hydroxytyrosol (B) and dihydrocaffeic acid (C) alone)	highest scavenging rate of DPPH radical (in the determined concentration range (1.76-915.20 ppm))
O=C(CCc1ccc(O)c(O)c1)OCCc1ccc(O)c(O)c1 [A, 3,4-dihydroxyphenethyl 3-(3,4-dihydroxyphenyl)propanoate]	excellent antioxidant activity	13.45%	17.80%	34.16%	42.74%	70.42%	80.63%	82.35%	85.70%	89.10%	91.22%	much higher than those of hydroxytyrosol (B) control group and dihydrocaffeic acid (C) control groups	91.22%
O=C(O)CCc1ccc(O)c(O)c1 [C, Dihydrocaffeic acid]		6.27%	7.46%	13.42%	19.21%	32.36%	37.87%	53.23%	59.82%	69.01%	70.28%		
O=C1O[C@H]([C@@H](O)CO)C(O)=C1O [Vc, Vitamin C]		23.16%	33.47%	79.63%	89.55%	97.42%	97.53%	98.29%	99.06%	99.10%	99.28%		
